Laboratory results taken from US10357036B2, “Compounds for controlling arthropods” (priority 2015, dated 2019).
Read-outs that look alike come from different tables or passages of the source.

Tests used:
[1] = system: Amaranthus retroflexus (AMARE); assay: Herbicidal activity, pre-emergence; assay type: in vivo; details: 1280 g/ha, 3 weeks
Source text: (§1) Seeds of monocotyledonous and dicotyledonous weed plants and crop plants were placed in wood-fibre pots in sandy loam and covered with soil. The compounds according to the invention, formulated as emulsion concentrates (EC), were then applied to the surface of the covering soil as an emulsion at a water application rate equating to 600 to 800 Uha with addition of 0.2% wetting agent.
(§2) After the treatment, the pots were placed in a greenhouse and kept under good growth conditions for the test plants. The damage to the test plants was scored visually after a test period of 3 weeks by comparison with untreated controls (herbicidal activity in percent (%): 100% activity=the plants have died, 0% activity=like control plants). Here, for example, compounds No. Ia-17, Ia-37, Ia-28 and Ia-56 at an application rate of 1280 g/ha each show 100% efficacy against Amaranthus retroflexus (AMARE) and with the exception of Ia-56, even against Viola tricolor (VIOTR). Furthermore, compounds no. Ia-17, Ia-37 and Ia-28 at the same application rate show an 80% or better efficacy against Matricaria inodorae (MATIN) and Ia-17 and Ia-37 even against Stellaria media (STEME).

Viola tricolor (VIOTR) = assay: Herbicidal activity, pre-emergence; assay type: in vivo; details: 1280 g/ha, 3 weeks
Source text: as §1, §2

[2] = system: Abutilon theophrasti (ABUTH); assay: Herbicidal activity, post-emergence; assay type: in vivo; details: 1280 g/ha, 3 weeks
Procedure: (§3) Seeds of monocotyledonous and dicotyledonous weeds and crop plants were placed in sandy loam in wood-fibre pots, covered with soil and cultivated in a greenhouse under good growth conditions. 2 to 3 weeks after sowing, the test plants are treated at the one-leaf stage. The compounds according to the invention, formulated as emulsion concentrates (EC), were then sprayed onto the green plant parts as an emulsion at a water application rate equating to 600 to 800 Uha with addition of 0.2% wetting agent. After the test plants have been left to stand in the greenhouse under optimal growth conditions for 3 weeks, the efficacy of the preparations was assessed visually in comparison to untreated controls (herbicidal efficacy in percent (%): 100% activity=the plants have died, 0% activity=like control plants). For example, compounds No. Ia-17, Ia-28 and Ia-37 at an application rate of 1280 g/ha each show at least 100% efficacy against Amaranthus retroflexus (AMARE) and Viola tricolor (VOTR).

[3] = system: Matricaria inodora (MATIN); assay: Herbicidal activity, post-emergence; assay type: in vivo; details: 1280 g/ha, 3 weeks
Procedure: as §3

Stellaria meida (STEME) = assay: Herbicidal activity, post-emergence; assay type: in vivo; details: 1280 g/ha, 3 weeks
Procedure: as §3

Ctenocephalides felis [4] = assay: Ctenocephalides felis in vitro contact test with adult cat fleas; assay type: in vivo; details: application rate 5 μg/cm^2 (=500 g/ha); after 48 h; dead or moribund fleas
In short: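 Glass tubes were coated with compound in acetone (900 ppm solution gives 5 μg/cm²), dried, then loaded with 5–10 adult cat fleas. Held horizontal at room temperature and ambient humidity for 48 h. Efficacy is the % of fleas dead or moribund (motionless or uncoordinated after knock-down).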

Rhipicephalus sanguineus = Rhipicephalus sanguineus in vitro contact test with adult brown dog ticks; assay type: in vivo; details: application rate 5 μg/cm^2 (=500 g/ha); after 48 h; dead or moribund ticks
In short: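 Adult Rhipicephalus sanguineus (5-10 per tube) held in glass tubes coated with compound from acetone solution, 900 ppm giving 5 μg/cm^2, in the dark at room temperature. After 48 h ticks put on a 45-50° C hotplate up to 5 min; motionless or uncoordinated ticks scored dead/moribund as % efficacy.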

[5] = system: cattle ticks (Boophilus microplus) Parkhurst strain, SP-resistant; assay: Boophilus microplus dip test; assay type: in vivo; details: 100 ppm; assessed after 7 days
In short: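 Engorged adult female ticks (8-10 per tube) fully immersed in compound from DMSO stock diluted with water to test concentration, then held in a climate-controlled room. Efficacy scored after 7 days from fertile egg laying, with eggs kept until hatching at about 42 days. 100% means no fertile eggs laid.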

Boophilus microplus = Boophilus microplus injection test; assay type: in vivo; details: 20 μg/animal; assessed after 7 days
Procedure: (§4) • Solvent: dimethyl sulfoxide
1 μl of the active ingredient solution is injected into the abdomen of 5 engorged adult female cattle ticks (Boophilus microplus). The animals are transferred into dishes and kept in a climate-controlled room.

Ctenocephalides felis [6] = assay: Ctenocephalides felis oral test; assay type: in vivo; details: 100 ppm in citrated cattle blood; after 2 days
Musca domestica = Musca domestica test; assay type: in vivo; details: 100 ppm; adult houseflies; after 2 days
Procedure: as §4
(§5) To produce a suitable active ingredient formulation, 10 mg of active ingredient are mixed with 0.5 ml of dimethyl sulfoxide, and the concentrate is diluted with water to the desired concentration.
Vessels containing a sponge treated with sugar solution and the active ingredient formulation of the desired concentration are populated with 10 adult houseflies (Musca domestica).

Spodoptera frugiperda = Spodoptera frugiperda spray test; assay type: in vivo; details: 100 g/ha, after 7 days; for pest or weed control at 100 g/ha: Spodoptera frugiperda, 168 h, read-out: efficacy
Tetranychus urticae = Tetranychus urticae spray test, OP-resistant (bean leaf discs); assay type: in vivo; details: 100 g/ha; after 6 days
Procedure: (§6) After 6 days, the efficacy in % is determined.

[7] = system: Anopheles gambiae strain RSPH (homozygot kdr); assay: whole plant or invertebrate; assay type: in vivo; details: read-out: efficacy (mortality)
Procedure: (§7) • Solvent: acetone+2000 ppm rapeseed oil methyl ester (RME)
(§8) To produce a suitable active compound formulation, the active compound is dissolved in the solvent (2 mg/ml). The active compound formulation is pipetted onto a glazed tile and, after it has dried off, adult mosquitoes of the species Anopheles gambiae strain RSPH (homozygot kdr) are placed onto the treated tile. The exposure time is 30 minutes.

[8] = system: Anopheles funestus strain FUMOZ-R; assay: whole plant or invertebrate; assay type: in vivo; details: read-out: efficacy (mortality)
Procedure: as §7
as §8, with “funestus” for “gambiae”, “FUMOZ-R (Hunt et al., Med Vet Entomol. 2005 September; 19 (3):271-5)” for “RSPH (homozygot kdr)”

[9] = system: Aedes aegypti strain MONHEIM; assay: whole plant or invertebrate; assay type: in vivo; details: read-out: efficacy (mortality)
Procedure: as §7
as §8, with “Aedes aegypti” for “Anopheles gambiae”, “MONHEIM” for “RSPH (homozygot kdr)”

Phaedon cochleariae = Phaedon cochleariae spray test; details: for pest or weed control at 100 g/ha: Phaedon cochleariae, 168 h, read-out: efficacy; for efficacy: 100 g/ha, after 7 days
Myzus persicae [10] = assay: Myzus persicae spray test (bell pepper plants); assay type: in vivo; details: 4 ppm; after 6 days
Procedure: To produce further test concentrations, the latter is diluted with emulsifier-containing water. When addition of ammonium salts and/or penetrants is required, these are each added at a concentration of 1000 ppm to the preparation solution.
Bell pepper plants (Capsicum annuum), which are heavily infested by the green peach aphid (Myzus persicae), are treated by being sprayed with the active compound preparation at the desired concentration.
After 6 days, the kill in % is determined.

Amblyomma hebraeum = Amblyomma hebraeum test (tick nymphs, immersion); assay type: in vivo; details: 100 ppm; after 42 days
Procedure: as §4, §5
Tick nymphs (Amblyomma hebraeum) are placed into perforated plastic beakers and immersed in the desired concentration for one minute. The ticks are transferred on filter paper into a Petri dish and stored in a climate-controlled cabinet.

Myzus persicae [11] = assay: Myzus persicae spray test (Chinese cabbage leaf discs); assay type: in vivo; details: 100 g/ha; after 6 days
Procedure: as §6

[12] = reversed-phase C18 HPLC column, logP, HPLC, C18, acetonitrile/water with formic acid (note a)

Compound | herbicidal efficacy [1] [%] | herbicidal efficacy (Viola tricolor (VIOTR)) [%] | efficacy (Ctenocephalides felis [4]) [%] | efficacy (Rhipicephalus sanguineus) [%] | efficacy (laying of fertile eggs) [5] [%] | efficacy (laying of fertile eggs) (Boophilus microplus) [%] | efficacy (rate of extermination) (Ctenocephalides felis [6]) [%] | efficacy (rate of extermination) (Musca domestica) [%] | efficacy (Tetranychus urticae) [%] | efficacy (Spodoptera frugiperda) [%] | efficacy (Phaedon cochleariae) [%] | other results
CC(=O)NCc1cccc(-c2cnn(-c3c(Cl)cc(C(F)(C(F)(F)F)C(F)(F)F)cc3[S+](C)[O-])c2)c1 (stereo not shown) [Ia-17] | 100 | 100 |  |  |  |  |  |  |  |  |  | herbicidal efficacy [2]: ≥ 80%; herbicidal efficacy [3]: ≥ 80%; herbicidal efficacy (Stellaria meida (STEME)): ≥ 80%
CC(=S)NCc1cc(-c2cnn(-c3c(Cl)cc(C(F)(C(F)(F)F)C(F)(F)F)cc3Cl)c2)ccc1Cl [Ia-162, N-(2-chloro-5-{1-[2,6-dichloro-4-(1,1,1,2,3,3,3-heptafluoropropan-2-yl)phenyl]-1H-pyrazol-4-yl}benzyl)ethanethioamide] |  |  | 100 | 100 | 80 | 100 | 100 | 100 | 100 |  |  | pest or weed control at 100 g/ha (Spodoptera frugiperda): 100%; mortality at 20 mg/m2 [7]: 90 to 100%; mortality at 20 mg/m2 [8]: 90 to 100%; mortality at 20 mg/m2 [9]: 90 to 100%; pest or weed control at 100 g/ha (Phaedon cochleariae): 100%; chromatographic logP [12]: 4.98; chromatographic logP (reversed-phase C18 HPLC column, logP^a, HPLC-MS method a), reversed-phase column (C18)): 4.98
CC(=O)NCc1cc(-c2cnn(-c3c(C)cc(C(F)(C(F)(F)F)C(F)(F)F)cc3C)c2)ccc1Cl [Ia-95] |  |  | 100 | 80 | 100 | 100 | 100 | 100 | 100 | 100 | 100 | efficacy (kill) (Myzus persicae [10]): 85%
CCC(=O)NCc1cc(-c2cnn(-c3c(C)cc(C(F)(C(F)(F)F)C(F)(F)F)cc3C)c2)ccc1F [Ia-01] |  |  | 100 | 100 | 100 | 100 | 100 | 100 | 100 | 100 | 100 | efficacy (rate of extermination) (Amblyomma hebraeum): 100%; efficacy (Myzus persicae [11]): 100%
CC(=O)NCc1cccc(-c2cnn(-c3c(C)cc(C(F)(C(F)(F)F)C(F)(F)F)cc3C)c2)c1 [Ia-37] | 100 | 100 |  | 80 |  | 100 | 100 | 100 | 100 | 83 | 100 | 
CC(=O)NCc1cc(-c2cnn(-c3c(Cl)cc(C(F)(C(F)(F)F)C(F)(F)F)cc3Cl)c2)ccc1Cl [Ia-05, N-(2-chloro-5-{1-[2,6-dichloro-4-(1,1,1,2,3,3,3-heptafluoropropan-2-yl)phenyl]-1H-pyrazol-4-yl}benzyl)acetamide] |  |  | 100 | 100 |  | 100 | 100 | 100 |  |  |  | pest or weed control at 100 g/ha (Spodoptera frugiperda): 100%; mortality at 20 mg/m2 [7]: 90 to 100%; mortality at 100 mg/m2 [7]: 90 to 100%; mortality at 20 mg/m2 [8]: 90 to 100%; mortality at 100 mg/m2 [8]: 90 to 100%; mortality at 20 mg/m2 [9]: 90 to 100%; mortality at 100 mg/m2 [9]: 90 to 100%; pest or weed control at 100 g/ha (Phaedon cochleariae): 100%; chromatographic logP [12]: 4.13; chromatographic logP (reversed-phase C18 HPLC column, logP^a, HPLC-MS method a)): 4.13
CC(=O)NCc1cc(-c2cnn(-c3c(C)cc(C(F)(C(F)(F)F)C(F)(F)F)cc3C)c2)ccc1F [Ia-13] |  |  | 100 | 100 | 100 | 100 | 100 | 100 | 100 | 100 | 100 | efficacy (rate of extermination) (Amblyomma hebraeum): 100%; efficacy (Myzus persicae [11]): 100%
CCC(=O)NCc1cccc(-c2cnn(-c3c(C)cc(C(F)(C(F)(F)F)C(F)(F)F)cc3C)c2)c1 [Ia-28] | 100 | 100 |  | 80 | 80 | 100 | 100 | 100 | 100 | 100 | 100 | 
